Data set [1] is described as follows: Adverse events (AEs) in the EASI-study (phase II, CABG patients). It is filed as in vivo, human. On the procedure:
A prospective, randomized, double-blind, placebo-controlled study was performed in which 180 elective patients undergoing on-pump coronary artery bypass grafting were enrolled. Patients were randomized in a 1:1 ratio and received either EA-230, 90 mg/kg/hour, or a placebo. These were infused at the start of the surgical procedure until the end of the use of the cardiopulmonary bypass. The main focus in this first-in-patient study was on safety and tolerability of EA-230. The primary efficacy endpoint was the modulation of the inflammatory response by EA-230. A key secondary endpoint was the effect of EA-230 on renal function.
The present study was a single-center, prospective, double-blind, placebo-controlled, randomized, single-dose phase II study. It has an adaptive design to evaluate the safety and immunomodulatory effects of EA-230 in patients undergoing for coronary artery bypass grafting (CABG). 180 eligible patients were included and were randomized to receive either active or placebo treatment in a 1:1 ratio. This was a first-in-patient safety and tolerability study, of which the primary efficacy objective was to assess the immunomodulatory effects of EA-230. The key-secondary efficacy endpoint was the effect of EA-230 on renal function. This study was described in accordance with the Standard Protocol Items: Recommendations for Interventional Trial (SPIRIT) guidelines, and registered at clinicaltrials.gov under number NCT03145220.
Intravenous infusion of EA-230, 90 mg/kg/hour, or placebo, was initiated at the moment of first surgical incision using an automated infusion pump. Infusion rate was set at 250 mL/hour, and infusion was continued until cessation of the CPB, or after 4 hours of continuous infusion, whichever comes first.
All AEs were judged by the investigators with regard to severity (“mild, moderate, or severe”) according to Common Terminology Criteria for Adverse Events guidelines 4.030 and their perceived relation to the study drug (“definitely, probably, possibly, or unrelated/unlikely to be related”). SAEs or SUSARs include death, life-threatening disease, persistent and/or significant disability and/or incapacity, and hospitalization and/or prolongation of inpatient hospitalization.

Data set [2] can be described thus: Solubility / aggregation screen of AQGV peptide salts. The settings on record: for aggregation in aqueous solution: in relation to peptide-acetate aggregation. An excerpt: FIG. 7: Overview of solubility experiments with results in Table 1.

Entries after “also recorded” stand apart in the source; their conditions may differ. Like-named read-outs stand apart in the source and are kept apart here. Peptide text beside a SMILES is read from it.

For the molecule `CC(C)[C@H](NC(=O)CNC(=O)[C@H](CCC(N)=O)NC(=O)[C@H](C)N)C(=O)O` [EA-230, AQGV] (H-AQGV-OH), in data set [1] (EA-230 group N = 91), the “AE of mild intensity, % of patients” value is on record as “(83.5) %”; the “AE of mild intensity, e = Number of events” value amounted to 188; the “AE of mild intensity, n = Number of patients experiencing the event” value came to 76; the “AE of moderate intensity, % of patients” value was “(24.2) %”. In data set [1] (EA-230 group N = 91), the “AE of moderate intensity, e = Number of events” value is on record as 23; the “AE of moderate intensity, n = Number of patients experiencing the event” value was 22; the “AE of severe intensity, % of patients” value is listed as “(5.5) %”; the “AE of severe intensity, e = Number of events” value is 6. Moreover, in data set [1] (EA-230 group N = 91), the “AE of severe intensity, n = Number of patients experiencing the event” value is 5; the “Anemia, % of patients” value is “(5.5) %”; the “Anemia, e = Number of events” value is reported as 5; the “Anemia, n = Number of patients experiencing the event” value is 5. Also, in data set [1] (EA-230 group N = 91), the “Any AE, % of patients” value was “(85.7) %”; the “Any AE, n = Number of patients experiencing the event” value is 78; the “Any SAE, % of patients” value is given as “(13.2) %”; the “Any SAE, e = Number of events” value stood at 23. For the same molecule, in data set [1] (EA-230 group N = 91), the “Any SAE, n = Number of patients experiencing the event” value stood at 12; the “Any SUSAR, % of patients” value was “(0) %”; the “Any SUSAR, e = Number of events” value was determined as 0; the “Any SUSAR, n = Number of patients experiencing the event” value is reported as 0. In addition, in data set [1] (EA-230 group N = 91), the “Blood and lymphatic system disorders Overall, % of patients” value is on record as “(5.5) %”; the “Blood and lymphatic system disorders Overall, e = Number of events” value was 6; the “Blood and lymphatic system disorders Overall, n = Number of patients experiencing the event” value was 5; the “Delirium, % of patients” value was “(5.5) %”. Besides, in data set [1] (EA-230 group N = 91), the “Delirium, e = Number of events” value came out at 5; the “Delirium, n = Number of patients experiencing the event” value amounted to 5; the “Fluid retention, % of patients” value is reported as “(2.2) %”; the “Fluid retention, e = Number of events” value was found to be 2. Besides, in data set [1] (EA-230 group N = 91), the “Fluid retention, n = Number of patients experiencing the event” value is 2; the “Gastrointestinal disorders Overall, % of patients” value was “(23.1) %”; the “Gastrointestinal disorders Overall, e = Number of events” value amounted to 27; the “Gastrointestinal disorders Overall, n = Number of patients experiencing the event” value is on record as 21. In data set [1] (EA-230 group N = 91), the “Hemorrhagic diathesis, % of patients” value is listed as “(1.1) %”; the “Hemorrhagic diathesis, e = Number of events” value is 1; the “Hemorrhagic diathesis, n = Number of patients experiencing the event” value was 1; the “Infections and infestations Overall, % of patients” value is reported as “(14.3) %”. In addition, in data set [1] (EA-230 group N = 91), the “Infections and infestations Overall, e = Number of events” value was determined as 15; the “Infections and infestations Overall, n = Number of patients experiencing the event” value amounted to 13; the “Metabolism and nutrition disorders Overall, % of patients” value is “(11) %”; the “Metabolism and nutrition disorders Overall, e = Number of events” value is 10. In addition, in data set [1] (EA-230 group N = 91), the “Metabolism and nutrition disorders Overall, n = Number of patients experiencing the event” value worked out at 10; the “Nausea, % of patients” value is recorded as “(16.5) %”; the “Nausea, e = Number of events” value is recorded as 15; the “Nausea, n = Number of patients experiencing the event” value is listed as 15. In data set [1] (EA-230 group N = 91), the “Psychiatric disorders Overall, % of patients” value was “(9.9) %”; the “Psychiatric disorders Overall, e = Number of events” value is 9; the “Psychiatric disorders Overall, n = Number of patients experiencing the event” value was determined as 9; the “Renal and urinary disorders Overall, % of patients” value is given as “(4.4) %”. Further, in data set [1] (EA-230 group N = 91), the “Renal and urinary disorders Overall, e = Number of events” value is on record as 4; the “Renal and urinary disorders Overall, n = Number of patients experiencing the event” value stood at 4. Also, the safety and tolerability entry in data set [1] (clinical trials / throughout surgery) is “safe and well tolerated; also recorded: found to be safe”.
Turning to `Nc1ncnc2c1ncn2[C@@H]1O[C@H](COP(=O)(O)O)[C@@H](O)[C@H]1O` [adenosine-monophosphate], in data set [2], the “solubility (aggregation point)” value was “did not provide solubility” and the “aggregation in aqueous solution” value is “aggravated aggregation”.
For `Nc1ncnc2c1ncn2[C@@H]1O[C@H](CO)[C@@H](O)[C@H]1O` [adenosine] the same measures were “did not provide solubility” and “aggravated aggregation”.
Regarding `O=C(O)/C=C\C(=O)O` [maleic acid], the “aggregation in aqueous solution” value in data set [2] is listed as “aggravated aggregation”. Besides, the “solubility (aggregation point)” value in data set [2] (solubility in 0.9% NaCl, compared to AQGV-Ac) was “lower solubility”.
Consider AQGV-citrate, for which, in data set [2], the “behaviour of highly concentrated solution” value was “does not crystallize or aggregate but tend to form a highly viscous solution”, the “solubility (aggregation point)” value is recorded as “Higher solubility” and the “aggregation in aqueous solution” value is reported as “(strongly) reduced aggregation”.
